In this assay the target is (Homo sapiens, UniProt P43220). The assay is described as follows: h-GLP-1 activity assay (cAMP HTRF, HEK293 cells with stable expression of human GLP-1). Format: cell-based. As to conditions: relative EC50, 10 nM human GLP-1 set as 100% response, 30 min at 37° C. As for the experimental part:
Human GLP-1 agonizing activity was detected in HEK293 cells with stable expression of human GLP-1 by Cisbio cAMP Gs dynamic kit (Catalog #62AM4PEC) according to manufacturer's protocol. Briefly, cells were collected and resuspended in assay buffer containing 0.1% BSA and 0.5 mM of IBMX at concentration to 2.5×10^5 cells/mL. Two μL 5× compound solution and 8 μL cell suspension were added to each well of low-volume 384 white assay plate. After 30 min incubation at 37° C., 5 μL cAMP-d2 working solution and 5 μL anti-cAMP antibody-cryptate were added to each well, and incubate at room temperature for 1 hr. Series dilution of cAMP was used as standard. Human GLP-1 (7-37) was used as positive control and 10 nM human GLP-1 was set as 100% response. HTRF signals were read at 665 and 615 nm with EnVision plate reader and calculated cAMP concentration by interpolation to the standard curve. The EC50 value of the tested compounds was calculated by fitting the dose response curve using a 4-parameter non-linear regression routine and relative EC50 was presented in Table 29.
On the technique in general: TR-FRET usually uses a lanthanide donor and a delayed reading to cut background.
Sequence of (Homo sapiens, UniProt P43220) (P43220 24-463): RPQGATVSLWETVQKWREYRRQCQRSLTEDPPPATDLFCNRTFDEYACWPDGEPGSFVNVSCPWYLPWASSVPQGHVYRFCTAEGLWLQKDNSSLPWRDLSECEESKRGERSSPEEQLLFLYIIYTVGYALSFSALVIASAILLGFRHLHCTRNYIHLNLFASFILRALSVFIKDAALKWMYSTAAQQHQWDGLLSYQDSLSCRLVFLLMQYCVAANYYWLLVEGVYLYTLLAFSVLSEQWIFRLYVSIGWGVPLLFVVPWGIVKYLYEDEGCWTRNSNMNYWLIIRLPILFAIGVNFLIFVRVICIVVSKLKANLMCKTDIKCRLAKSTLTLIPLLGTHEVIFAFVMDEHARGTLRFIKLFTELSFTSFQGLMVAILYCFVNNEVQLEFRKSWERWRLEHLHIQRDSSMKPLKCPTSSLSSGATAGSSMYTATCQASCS
For orientation: EC50 means the concentration giving half of the maximal effect. `CC1c2c(-n3ccn(-c4ccc5c(cnn5C)c4F)c3=O)c(-c3ccc(F)cc3)nn2CCN1C(=O)c1cn2cc(C3CCOCC3)ccc2c1C1(c2noc(=O)[nH]2)CC1` (racemic) [Compound 23, 3-(1-(2-(3-(3-(4-fluoro-1-methyl-1H-indazol-5-yl)-2-oxo-2,3-dihydro-1H-imidazol-1-yl)-2-(4-fluorophenyl)-4-methyl-4,5,6,7-tetrahydropyrazolo[1,5-a]pyrazine-5-carbonyl)-6-(tetrahydro-2H-pyran-4-yl)indolizin-1-yl)cyclopropyl)-1,2,4-oxadiazol-5(4H)-one] yielded an EC50 of 20 to 100 nM.
Under `Cc1cc(-n2nc3c(c2-n2ccn(-c4ccc5c(cnn5C)c4F)c2=O)CN(C(=O)c2cc4cc(C5CCOC(C)(C)C5)ccc4n2Cc2cc(O)ns2)CC3)cc(C)c1F` (racemic) [Compound 42, 1-(5-(5-(2,2-dimethyltetrahydro-2H-pyran-4-yl)-1-((3-hydroxyisothiazol-5-yl)methyl)-1H-indole-2-carbonyl)-2-(4-fluoro-3,5-dimethylphenyl)-4,5,6,7-tetrahydro-2H-pyrazolo[4,3-c]pyridin-3-yl)-3-(4-fluoro-1-methyl-1H-indazol-5-yl)-1,3-dihydro-2H-imidazol-2-one] stands greater than 100 nM; under `C[C@H]1c2c(nn(-c3ccc(F)c(C4CC4)c3)c2-n2ccn(-c3ccc4c(cnn4C)c3F)c2=O)CCN1C(=O)c1nc2cc([C@H]3CCOC(C)(C)C3)ccn2c1C1(c2noc(=O)[nH]2)CC1` (single isomer, unassigned) [Compound 97], greater than 100 nM.
`Cc1cc(-n2nc3c(c2-n2ccn(-c4ccc5c(cnn5C)c4F)c2=O)CN(C(=O)c2cc4cc(C5CCOC(C)(C)C5)ccc4n2Cc2cc(O)no2)CC3)cc(C)c1F` (racemic) [Compound 36, 1-(5-(5-(2,2-dimethyltetrahydro-2H-pyran-4-yl)-1-((3-hydroxyisoxazol-5-yl)methyl)-1H-indole-2-carbonyl)-2-(4-fluoro-3,5-dimethylphenyl)-4,5,6,7-tetrahydro-2H-pyrazolo[4,3-c]pyridin-3-yl)-3-(4-fluoro-1-methyl-1H-indazol-5-yl)-1,3-dihydro-2H-imidazol-2-one] came in with an EC50 greater than 100 nM.
Regarding `Cc1cc(-c2nn3c(c2-n2ccn(-c4ccc5c(cnn5C)c4F)c2=O)[C@@H](C)N(C(=O)c2cc4cc([C@@H]5CCOC(C)(C)C5)ccc4n2C2(c4noc(=O)[nH]4)CC2)CC3)ccc1F` (single isomer, unassigned) [Compound 27], the EC50 was greater than 100 nM.
Under `Cc1cc(-n2nc3c(c2-n2ccn(-c4ccc5c(cnn5C)c4F)c2=O)[C@H](C)N(C(=O)c2cc4cc(C5CCOC(C)(C)C5)ccc4n2C2(c4nnc(O)s4)CC2)CC3)cc(C)c1F` (mixture of isomers) [Compound 47, 1-((4S)-5-(5-(2,2-dimethyltetrahydro-2H-pyran-4-yl)-1-(1-(5-hydroxy-1,3,4-thiadiazol-2-yl)cyclopropyl)-1H-indole-2-carbonyl)-2-(4-fluoro-3,5-dimethylphenyl)-4-methyl-4,5,6,7-tetrahydro-2H-pyrazolo[4,3-c]pyridin-3-yl)-3-(4-fluoro-1-methyl-1H-indazol-5-yl)-1,3-dihydro-2H-imidazol-2-one] stands less than 20 nM; under `C[C@H]1c2c(nn([C@@H](C)c3ccc(F)cc3)c2-n2ccn(-c3ccc4c(cnn4C)c3F)c2=O)CCN1C(=O)c1cc2cc([C@@H]3CCOC(C)(C)C3)ccc2n1C1(c2noc(=O)[nH]2)CC1` (single isomer, unassigned) [Compound 40], less than 20 nM.
Under `C[C@H]1c2c(-n3ccn(-c4ccc5c(cnn5C)c4F)c3=O)c(-c3cc(Cl)c(F)c(Cl)c3)nn2CCN1C(=O)c1cc2cc([C@@H]3CCOC(C)(C)C3)ccc2n1C1(c2noc(=O)[nH]2)CC1` (single isomer, unassigned) [Compound 52] stands greater than 100 nM; under `C[C@H]1c2c(nn(-c3ccc(F)cc3)c2-n2ccn(-c3ccc4c(cnn4C)c3F)c2=O)CCN1C(=O)c1cn2cc([C@@H]3CCOC(C)(C)C3)ccc2c1C1(c2noc(=O)[nH]2)CC1` (single isomer, unassigned) [Compound 11], less than 20 nM; under `C[C@H]1c2c(nn(-c3ccc(F)c(C4CC4)c3)c2-n2ccn(-c3ccc4c(cnn4C)c3F)c2=O)CCN1C(=O)c1cc2cc([C@@H]3CCOC(C)(C)C3)c(F)cn2c1C1(c2noc(=O)[nH]2)CC1` (single isomer, unassigned) [Compound 94], 20 to 100 nM.
Under `C[C@H]1c2c(nn(-c3ccc(F)c(F)c3)c2-n2ccn(-c3ccc4c(cnn4C)c3F)c2=O)CCN1C(=O)c1cc2cc([C@@H]3CCOC(C)(C)C3)ccn2c1C1(c2noc(=O)[nH]2)CC1` (single isomer, unassigned) [Compound 78] stands less than 20 nM; under `Cc1cc(-n2nc3c(c2-n2ccn(-c4ccc5c(cnn5C)c4F)c2=O)[C@H](C)N(C(=O)c2cc4cc(C5CCOCC5)ccc4n2-c2cccc(C(=O)O)c2)CC3)cc(C)c1F` [Compound 56, (S)-3-(2-(3-(3-(4-fluoro-1-methyl-1H-indazol-5-yl)-2-oxo-2,3-dihydro-1H-imidazol-1-yl)-2-(4-fluoro-3,5-dimethylphenyl)-4-methyl-4,5,6,7-tetrahydro-2H-pyrazolo[4,3-c]pyridine-5-carbonyl)-5-(tetrahydro-2H-pyran-4-yl)-1H-indol-1-yl)benzoic acid], less than 20 nM; under `C[C@H]1c2c(nn(-c3ccc(F)c(C4CC4)c3)c2-n2ccn(-c3ccc4c(cnn4C)c3F)c2=O)CCN1C(=O)c1cc2cc([C@@H]3CCOC(C)(C)C3)cnn2c1C1(c2noc(=O)[nH]2)CC1` (single isomer, unassigned) [Compound 100], 20 to 100 nM.
Consider `C[C@H]1c2c(nn(-c3ccc(F)c(C4CC4)c3)c2-n2ccn(-c3ccc4c(cnn4C)c3F)c2=O)CCN1C(=O)c1cc2cc([C@H]3CCOC(C)(C)C3)c(F)cn2c1C1(c2noc(=O)[nH]2)CC1` (single isomer, unassigned) [Compound 93], for which the EC50 was less than 20 nM.
As for `C[C@@H]1c2c(-n3ccn(-c4ccc5c(cnn5C)c4F)c3=O)c(-c3ccc(F)cc3)nn2CCN1C(=O)c1cc2cc([C@@H]3CCOC(C)(C)C3)ccc2n1C1(c2noc(=O)[nH]2)CC1` (single isomer, unassigned) [Compound 34], the EC50 was greater than 100 nM.
With `Cc1cc(-n2nc3c(c2-n2ccn(-c4ccc5c(cnn5C)c4F)c2=O)[C@H](C)N(C(=O)c2cn4cc(-c5ccnc(C(F)(F)F)c5)ccc4c2C2(c4noc(=O)[nH]4)CC2)CC3)cc(C)c1F` [Compound 2, (S)-3-(1-(2-(3-(3-(4-fluoro-1-methyl-1H-indazol-5-yl)-2-oxo-2,3-dihydro-1H-imidazol-1-yl)-2-(4-fluoro-3,5-dimethylphenyl)-4-methyl-4,5,6,7-tetrahydro-2H-pyrazolo[4,3-c]pyridine-5-carbonyl)-6-(2-(trifluoromethyl)pyridin-4-yl)indolizin-1-yl)cyclopropyl)-1,2,4-oxadiazol-5(4H)-one] the figure was less than 20 nM.
`Cc1cc(-c2nn3c(c2-n2ccn(-c4ccc5c(cnn5C)c4F)c2=O)[C@H](C)N(C(=O)c2cc4cc([C@@H]5CCOC(C)(C)C5)ccc4n2C2(c4noc(=O)[nH]4)CC2)CC3)ccc1F` (single isomer, unassigned) [Compound 26]: the EC50 was less than 20 nM.
Under `Cc1cc(-n2nc3c(c2-n2ccn(-c4ccc5c(cnn5C)c4F)c2=O)[C@H](C)N(C(=O)c2cn4cc([C@H]5CCOC(C)(C)C5)ccc4c2C2(c4noc(=O)[nH]4)CC2)CC3)cc(C)c1F` (single isomer, unassigned) [Compound 20] stands 20 to 100 nM; under `Cc1cc(-n2nc3c(c2-n2ccn(-c4ccc5c(cnn5C)c4F)c2=O)CN(C(=O)c2cc4cc(C5CCOC(C)(C)C5)ccc4n2Cc2nnc(O)s2)CC3)cc(C)c1F` (racemic) [Compound 35, 1-(5-(5-(2,2-dimethyltetrahydro-2H-pyran-4-yl)-1-((5-hydroxy-1,3,4-thiadiazol-2-yl)methyl)-1H-indole-2-carbonyl)-2-(4-fluoro-3,5-dimethylphenyl)-4,5,6,7-tetrahydro-2H-pyrazolo[4,3-c]pyridin-3-yl)-3-(4-fluoro-1-methyl-1H-indazol-5-yl)-1,3-dihydro-2H-imidazol-2-one], greater than 100 nM.
`Cc1cc(-c2nn3c(c2-n2ccn(-c4ccc5c(cnn5C)c4F)c2=O)[C@@H](C)N(C(=O)c2cc4cc([C@@H]5CCOC(C)(C)C5)ccc4n2C2(c4noc(=O)[nH]4)CC2)CC3)cc(C)c1F` (single isomer, unassigned) [Compound 24] yielded an EC50 of less than 20 nM.
For the compound `C[C@H]1c2c(nn(-c3ccc(C(F)(F)F)cc3)c2-n2ccn(-c3ccc4c(cnn4C)c3F)c2=O)CCN1C(=O)c1cn2cc([C@@H]3CCOC(C)(C)C3)ccc2c1C1(c2noc(=O)[nH]2)CC1` (single isomer, unassigned) [Compound 8], the EC50 was less than 20 nM.
`C[C@H]1c2c(nn(-c3ccc(F)c(Cl)c3)c2-n2ccn(-c3ccc4c(cnn4C)c3F)c2=O)CCN1C(=O)c1cc2cc([C@@H]3CCOC(C)(C)C3)ccn2c1C1(c2noc(=O)[nH]2)CC1` (single isomer, unassigned) [Compound 67]: the EC50 is less than 20 nM.
With `Cc1cc(-n2nc3c(c2-n2ccn(-c4ccc5c(cnn5C)c4F)c2=O)[C@H](C)N(C(=O)c2cn4cc([C@H]5CCOC(C)(C)C5)ccc4c2[C@@]2(c4noc(=O)[nH]4)C[C@@H]2C)CC3)cc(C)c1F` (single isomer, unassigned) [Compound 4] the figure was 20 to 100 nM; with `C[C@H]1c2c(nn(C34CC(C3)C4)c2-n2ccn(-c3ccc4c(cnn4C)c3F)c2=O)CCN1C(=O)c1cc2cc([C@H]3CCOC(C)(C)C3)ccc2n1C1(c2noc(=O)[nH]2)CC1` (single isomer, unassigned) [Compound 60], less than 20 nM.

Values taken from US12037339B2, “Substituted imidazoles as GLP-1 receptor agonists” (Eccogene Inc., priority 2020, dated 2024).
